pEC50: −log10 of the molar value. Where two headings read alike, the source gives them in different places. *1 amine or outer side, *2 acyl side, *3 side chain or, on linkers, in order; H or OH if unused. Where a SMILES comes first, the peptide text is derived from it. Side-chain parts run from the residue outwards. [ ]: non-standard residue; d: D form. The star is where a group is joined. C18 diacid = O=C(O)CCCCCCCCCCCCCCCCC(=O)*; γGlu = O=C(O)[C@H](CCC(=O)[*:2])N[*:1]; Aib = CC(C)(N)C(=O)O
Tests used:
hGLP1R = molecular target: T1, hGLP1R (Homo sapiens, UniProt P43220); test: hGLP1R CreLuc assay in 0.5% and 100% plasma (HEK-293 CRE-luciferase reporter cells); assay type: cell-based; settings: HEK-293 reporter cells
T1 construct: expressed in transfected cells; host or cells: HEK-293 CRE-luciferase reporter cells
T1 sequence (P43220 24-463): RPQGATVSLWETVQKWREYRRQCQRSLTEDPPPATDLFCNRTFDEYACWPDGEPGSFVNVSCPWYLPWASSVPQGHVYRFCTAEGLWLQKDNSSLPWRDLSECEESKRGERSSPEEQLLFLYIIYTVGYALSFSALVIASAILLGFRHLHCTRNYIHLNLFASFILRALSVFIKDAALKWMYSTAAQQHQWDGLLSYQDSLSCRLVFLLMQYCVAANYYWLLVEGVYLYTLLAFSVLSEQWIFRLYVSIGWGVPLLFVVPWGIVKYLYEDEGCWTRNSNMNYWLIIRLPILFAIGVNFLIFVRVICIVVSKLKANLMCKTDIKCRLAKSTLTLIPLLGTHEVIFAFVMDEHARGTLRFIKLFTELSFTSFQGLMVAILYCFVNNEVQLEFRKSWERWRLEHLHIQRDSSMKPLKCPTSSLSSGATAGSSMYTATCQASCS

[1] = Solubility in 0.1 M phosphate buffer at pH 7; assay type: physicochemical; settings: 0.1 M phosphate buffer at pH 7, 10 mg/mL final peptide concentration, shaking 2 hours at room temperature, peptides as TFA-salts; measured sample pH 6.5-7.0
hGIPR = molecular target: T2, hGIPR (Homo sapiens, UniProt P48546); test: hGIPR CreLuc assay in 0.5% and 100% plasma (CHO CRE-luciferase reporter cells); assay type: cell-based
T2 construct: expressed in transfected cells; host or cells: CHO CRE-luciferase reporter cells
T2 sequence (P48546 22-466): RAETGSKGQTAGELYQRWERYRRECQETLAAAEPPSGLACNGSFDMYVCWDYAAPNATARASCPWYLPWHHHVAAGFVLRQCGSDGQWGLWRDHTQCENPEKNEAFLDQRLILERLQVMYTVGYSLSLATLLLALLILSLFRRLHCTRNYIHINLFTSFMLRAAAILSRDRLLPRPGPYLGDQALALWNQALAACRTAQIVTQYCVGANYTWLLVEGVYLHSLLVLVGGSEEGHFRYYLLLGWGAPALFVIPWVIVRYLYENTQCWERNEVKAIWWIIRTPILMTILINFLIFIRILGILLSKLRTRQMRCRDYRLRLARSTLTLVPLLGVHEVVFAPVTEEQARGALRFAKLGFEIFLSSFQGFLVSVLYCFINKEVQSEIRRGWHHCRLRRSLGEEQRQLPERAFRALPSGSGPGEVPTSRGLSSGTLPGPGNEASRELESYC

[2] = 100% human plasma, read-out: hGLP1R 100% hP
[3] = 0.5% human plasma, read-out: hGIPR 0.5% hP
[4] = 0.5% human plasma, read-out: hGLP1R 0.5% hP

Row | Structure (SMILES) | pEC50 (hGLP1R; [2]) | solubility at 2 h [1] | pEC50 (hGIPR; [3]) | pEC50 (hGLP1R; [4]) | pEC50 (hGIPR; 100% human plasma, read-out: hGIPR 100% hP)
1 | CC[C@H](C)[C@H](NC(=O)[C@H](CC(C)C)NC(=O)[C@H](Cc1c[nH]cn1)NC(=O)[C@H](CCCNC(=N)N)NC(=O)[C@@H](NC(=O)[C@H](Cc1ccccc1)NC(=O)[C@H](CCC(=O)O)NC(=O)C(C)(C)NC(=O)[C@H](CCC(N)=O)NC(=O)[C@H](C)NC(=O)[C@H](CCC(N)=O)NC(=O)[C@H](CCC(=O)O)NC(=O)[C@H](CCC(=O)O)NC(=O)[C@H](CC(C)C)NC(=O)C(C)(C)NC(=O)[C@@H](NC(=O)[C@H](CO)NC(=O)[C@H](Cc1ccc(O)cc1)NC(=O)[C@H](CC(=O)O)NC(=O)[C@H](CO)NC(=O)[C@@H](NC(=O)[C@H](Cc1ccccc1)NC(=O)[C@@H](NC(=O)CNC(=O)[C@H](CCC(=O)O)NC(=O)C(C)(C)NC(=O)[C@@H](N)Cc1ccc(O)cc1)[C@@H](C)O)[C@@H](C)O)[C@@H](C)CC)C(C)C)C(=O)N[C@@H](CC(N)=O)C(=O)N[C@@H](CCCCNC(=O)CC[C@H](NC(=O)CC[C@H](NC(=O)CC[C@H](NC(=O)CC[C@H](NC(=O)CCCCCCCCCCCCCCCCC(=O)O)C(=O)O)C(=O)O)C(=O)O)C(=O)O)C(=O)NC(C)(C)C(=O)N[C@H](C(=O)N[C@@H](CCCNC(=N)N)C(=O)N[C@@H](CCC(N)=O)C(=O)N[C@@H](CCCNC(=N)N)C(=O)N[C@@H](Cc1ccc(O)cc1)C(N)=O)[C@@H](C)O [Compound 129, Y-Aib-E-G-T-F-T-S-D-Y-S-I-Aib-L-E-E-Q-A-Q-Aib-E-F-V-R-H-L-I-N-K(1,3)-Aib-T-R-Q-R-Y-NH2.C18DA-gGlu-gGlu-gGlu-gGlu(1,2)] (H-Y[Aib]EGTFTSDYSI[Aib]LEEQAQ[Aib]EFVRHLINK([γGlu-γGlu-γGlu-γGlu-C18 diacid])[Aib]TRQRY-NH2) | 8.55 | 5100 µg/mL | 9.40 | 9.05 | 8.15
2 | CC[C@H](C)[C@H](NC(=O)[C@H](CC(C)C)NC(=O)[C@H](Cc1c[nH]cn1)NC(=O)[C@H](CCCNC(=N)N)NC(=O)[C@@H](NC(=O)[C@H](Cc1ccccc1)NC(=O)[C@H](C)NC(=O)C(C)(C)NC(=O)[C@H](CCC(N)=O)NC(=O)[C@H](C)NC(=O)[C@H](CCC(N)=O)NC(=O)[C@H](C)NC(=O)[C@H](CC(=O)O)NC(=O)[C@H](CC(C)C)NC(=O)C(C)(C)NC(=O)[C@@H](NC(=O)[C@H](CO)NC(=O)[C@H](Cc1ccc(O)cc1)NC(=O)[C@H](CC(=O)O)NC(=O)[C@H](CO)NC(=O)[C@@H](NC(=O)[C@H](Cc1ccccc1)NC(=O)[C@@H](NC(=O)CNC(=O)[C@H](CCC(=O)O)NC(=O)C(C)(C)NC(=O)[C@@H](N)Cc1ccc(O)cc1)[C@@H](C)O)[C@@H](C)O)[C@@H](C)CC)C(C)C)C(=O)N[C@@H](CC(N)=O)C(=O)N[C@@H](CCCCNC(=O)[C@@H](N)CCCCNC(=O)CC[C@H](NC(=O)CC[C@H](NC(=O)CC[C@H](NC(=O)CC[C@H](NC(=O)CC[C@H](NC(=O)CC[C@H](NC(=O)CCCCCCCCCCCCCCCCC(=O)O)C(=O)O)C(=O)O)C(=O)O)C(=O)O)C(=O)O)C(=O)O)C(=O)NC(C)(C)C(=O)N[C@H](C(=O)N[C@@H](CCCNC(=N)N)C(=O)N[C@@H](CCC(N)=O)C(=O)N[C@@H](CCCNC(=N)N)C(=O)N[C@@H](Cc1ccc(O)cc1)C(N)=O)[C@@H](C)O [Compound 55, Y-Aib-E-G-T-F-T-S-D-Y-S-I-Aib-L-D-A-Q-A-Q-Aib-A-F-V-R-H-L-I-N-K(1,3)-Aib-T-R-Q-R-Y-NH2.C18DA-gGlu-gGlu-gGlu-gGlu-gGlu-gGlu-eLys(1,2)] |  | 8800 µg/mL | 9.40 | 9.40 | 

Next, values leading:

Row | pEC50 (hGLP1R; [2]) | solubility at 2 h [1] | pEC50 (hGIPR; [3]) | pEC50 (hGLP1R; [4]) | pEC50 (hGIPR; 100% human plasma, read-out: hGIPR 100% hP) | Structure (SMILES)
3 | 8.40 | 4500 µg/mL | 9.40 |  |  | CC[C@H](C)[C@H](NC(=O)[C@H](CC(C)C)NC(=O)[C@H](Cc1c[nH]cn1)NC(=O)[C@H](CCCNC(=N)N)NC(=O)[C@@H](NC(=O)[C@H](Cc1ccccc1)NC(=O)[C@H](C)NC(=O)C(C)(C)NC(=O)[C@H](CCC(N)=O)NC(=O)[C@H](C)NC(=O)[C@H](CCC(N)=O)NC(=O)[C@H](CCCCN)NC(=O)[C@H](CCC(=O)O)NC(=O)[C@H](CC(C)C)NC(=O)C(C)(C)NC(=O)[C@@H](NC(=O)[C@H](CO)NC(=O)[C@H](Cc1ccc(O)cc1)NC(=O)[C@H](CC(=O)O)NC(=O)[C@H](CO)NC(=O)[C@@H](NC(=O)[C@H](Cc1ccccc1)NC(=O)[C@@H](NC(=O)CNC(=O)[C@H](CCC(=O)O)NC(=O)C(C)(C)NC(=O)[C@@H](N)Cc1ccc(O)cc1)[C@@H](C)O)[C@@H](C)O)[C@@H](C)CC)C(C)C)C(=O)N[C@@H](CC(N)=O)C(=O)N[C@@H](CCCCNC(=O)[C@@H](N)CCCCNC(=O)CC[C@H](NC(=O)CC[C@H](NC(=O)CC[C@H](NC(=O)CC[C@H](NC(=O)CC[C@H](NC(=O)CC[C@H](NC(=O)CCCCCCCCCCCCCCCCC(=O)O)C(=O)O)C(=O)O)C(=O)O)C(=O)O)C(=O)O)C(=O)O)C(=O)N[C@@H](CC(C)C)C(=O)N[C@H](C(=O)N[C@@H](CCCNC(=N)N)C(=O)N[C@@H](CCC(N)=O)C(=O)N[C@@H](CCCNC(=N)N)C(=O)N[C@@H](Cc1ccc(O)cc1)C(N)=O)[C@@H](C)O [Compound 127, Y-Aib-E-G-T-F-T-S-D-Y-S-I-Aib-L-E-K-Q-A-Q-Aib-A-F-V-R-H-L-I-N-K(1,3)-L-T-R-Q-R-Y-NH2.C18DA-gGlu-gGlu-gGlu-gGlu-gGlu-gGlu-eLys(1,2)]
4 |  | 5000 µg/mL | 9.10 | 8.74 |  | CC[C@H](C)[C@H](NC(=O)[C@H](CC(C)C)NC(=O)[C@H](Cc1c[nH]cn1)NC(=O)[C@H](CCCNC(=N)N)NC(=O)[C@@H](NC(=O)[C@H](Cc1ccccc1)NC(=O)[C@H](C)NC(=O)C(C)(C)NC(=O)[C@H](CCC(N)=O)NC(=O)[C@H](C)NC(=O)[C@H](CCC(N)=O)NC(=O)[C@H](CCCCN)NC(=O)[C@H](CCC(=O)O)NC(=O)[C@H](CC(C)C)NC(=O)C(C)(C)NC(=O)[C@@H](NC(=O)[C@H](CO)NC(=O)[C@H](Cc1ccc(O)cc1)NC(=O)[C@H](CC(=O)O)NC(=O)[C@H](CO)NC(=O)[C@@H](NC(=O)[C@H](Cc1ccccc1)NC(=O)[C@@H](NC(=O)CNC(=O)[C@H](CCC(=O)O)NC(=O)C(C)(C)NC(=O)[C@@H](N)Cc1ccc(O)cc1)[C@@H](C)O)[C@@H](C)O)[C@@H](C)CC)C(C)C)C(=O)N[C@@H](CC(N)=O)C(=O)N[C@@H](CCCCNC(=O)CC[C@H](NC(=O)CC[C@H](NC(=O)CC[C@H](NC(=O)CC[C@H](NC(=O)CC[C@H](NC(=O)CC[C@H](NC(=O)CCCCCCCCCCCCCCCCC(=O)O)C(=O)O)C(=O)O)C(=O)O)C(=O)O)C(=O)O)C(=O)O)C(=O)N[C@@H](CC(C)C)C(=O)N[C@H](C(=O)N[C@@H](CCCNC(=N)N)C(=O)N[C@@H](CCC(N)=O)C(=O)N[C@@H](CCCNC(=N)N)C(=O)N[C@@H](Cc1ccc(O)cc1)C(N)=O)[C@@H](C)O [Compound 12, Y-Aib-E-G-T-F-T-S-D-Y-S-I-Aib-L-E-K-Q-A-Q-Aib-A-F-V-R-H-L-I-N-K(1,3)-L-T-R-Q-R-Y-NH2.C18DA-gGlu-gGlu-gGlu-gGlu-gGlu-gGlu(1,2)]
5 |  | 10000 µg/mL | 10.00 | 9.52 |  | CC[C@H](C)[C@H](NC(=O)[C@H](CC(C)C)NC(=O)[C@H](Cc1c[nH]cn1)NC(=O)[C@H](CCCNC(=N)N)NC(=O)[C@@H](NC(=O)[C@H](Cc1ccccc1)NC(=O)[C@H](C)NC(=O)C(C)(C)NC(=O)[C@H](CCC(N)=O)NC(=O)[C@H](C)NC(=O)[C@H](CCC(N)=O)NC(=O)[C@H](CCCCN)NC(=O)[C@H](CCC(=O)O)NC(=O)[C@H](CC(C)C)NC(=O)[C@](C)(CC(C)C)NC(=O)[C@@H](NC(=O)[C@H](CO)NC(=O)[C@H](Cc1ccc(O)cc1)NC(=O)[C@H](CC(=O)O)NC(=O)[C@H](CO)NC(=O)[C@@H](NC(=O)[C@H](Cc1ccccc1)NC(=O)[C@@H](NC(=O)CNC(=O)[C@H](CCC(=O)O)NC(=O)C(C)(C)NC(=O)[C@@H](N)Cc1ccc(O)cc1)[C@@H](C)O)[C@@H](C)O)[C@@H](C)CC)C(C)C)C(=O)N[C@@H](CC(N)=O)C(=O)N[C@@H](CCCCNC(=O)CC[C@H](NC(=O)CC[C@H](NC(=O)CC[C@H](NC(=O)CC[C@H](NC(=O)CC[C@H](NC(=O)CC[C@H](NC(=O)CCCCCCCCCCCCCCCCCCC(=O)O)C(=O)O)C(=O)O)C(=O)O)C(=O)O)C(=O)O)C(=O)O)C(=O)NC(C)(C)C(=O)N[C@H](C(=O)N[C@@H](CCCNC(=N)N)C(=O)N[C@@H](CCC(N)=O)C(=O)N[C@@H](CCCNC(=N)N)C(=O)N[C@@H](Cc1ccc(O)cc1)C(N)=O)[C@@H](C)O [Compound 49, Y-Aib-E-G-T-F-T-S-D-Y-S-I-aMeL-L-E-K-Q-A-Q-Aib-A-F-V-R-H-L-I-N-K(1,3)-Aib-T-R-Q-R-Y-NH2.C20DA-gGlu-gGlu-gGlu-gGlu-gGlu-gGlu(1,2)]

Source: US20250382344A1, “Soluble GLP1/GIP/NPY2 Receptor Triple Agonists” (Boehringer Ingelheim International GmH, priority 2024, published 2025)
